Reference: patent publication US20080119456A1, “Substituted Thiazoleacetic Acid as Crth2 Ligands” (priority 2004, published 2008)

How the values were obtained:
human CRTH2 receptor = biological target: T1, human CRTH2 receptor (Homo sapiens, UniProt Q9Y5Y4, V204A); assay: Receptor binding assay: [3H]PGD2 competition on whole COS-7 cells transfected with CRTH2; conditions: 0.1 nM [3H]PGD2, whole cells, 3 h at 4° C.
T1 construct: expressed in transfected cells; host or cells: COS-7 cells, transient, pcDNA3.1(+)
T1 sequence (Q9Y5Y4 1-395 V204A): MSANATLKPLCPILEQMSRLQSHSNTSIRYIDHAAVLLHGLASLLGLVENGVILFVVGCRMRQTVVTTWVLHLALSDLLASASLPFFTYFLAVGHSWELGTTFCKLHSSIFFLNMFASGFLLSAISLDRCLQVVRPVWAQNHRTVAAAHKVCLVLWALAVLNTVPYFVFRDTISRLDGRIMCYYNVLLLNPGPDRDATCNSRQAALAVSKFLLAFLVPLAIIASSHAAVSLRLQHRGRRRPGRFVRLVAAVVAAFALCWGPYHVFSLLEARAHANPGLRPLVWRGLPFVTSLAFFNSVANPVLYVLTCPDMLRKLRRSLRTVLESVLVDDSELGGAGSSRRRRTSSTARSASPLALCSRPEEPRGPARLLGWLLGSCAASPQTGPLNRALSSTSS
From the text: (§1) Generation/origin of the cDNA Constructs. The coding sequence of the human CRTH2 receptor (genbank accession no NM_004778) was amplified by PCR from a human hippocampus cDNA library and inserted into the pcDNA3.1(+) expression vector (invitrogen) via 5′ HindIII and 3′ EcoRI. To generate a CRTH2-Renilla luciferase (CRTH2-Rluc) fusion protein, the CRTH2 coding sequence without a STOP codon and Rluc were amplified, fused in frame by PCR and subcloned into the pcDNA3.1(+)Zeo expression vector (invitrogen). Human β-arrestin2 (β-arr2) N-terminally tagged with GFP^2 (βarr2-GFP^2) and Renilla luciferase were purchased from BioSignal Packard Inc, (Montreal, Canada). The sequence identity of the construct was verified by restriction endonuclease digests and sequencing in both directions on an ABI Prism (Applied Biosystems, Foster City, Calif.).
(§2) Cell Culture and Transfection. COS-7 cells were grown in Dulbecco's modified Eagle's medium (DMEM) 1885 supplemented with 10% fetal bovine serum, 100 units/ml penicillin, […] streptomycin, and kept at 37° C. in a 10% CO2 atmosphere. HEK293 cells were maintained in Minimum Essential medium (MEM) supplemented with 10% (v/v) heat inactivated fetal calf serum (HIFCS), 2 mM Glutamax™-I, 1% non essential amino acids (NEAA), 1% sodium pyruvate and 10 μg/ml gentamicin. For binding experiments, COS7 cells were transiently transfected with the CRTH2 receptor using a calcium phosphate-DNA coprecipitation method with the addition of chloroquine (as described by Hoist et al., 2001*). To perform the functional Bioluminescence Resonance Energy Transfer (BRET) assays, a HEK293 cell clone stably expressing βarr2-GFP^2 and CRTH2-Rluc was generated (CRTH2-HEK293 cells).
Binding assay. 24 h after transfection COS-7 cells were seeded into 96 well plates at a density of 30.000 cells/well. Competition binding experiments on whole cells were then performed about 18-24 h later using 0.1 nM [^3H]PGD2 (NEN, 172 Ci/mmol) in a binding buffer consisting of HBSS (GIBCO) and 10 mM HEPES. Competing ligands were diluted in DMSO which was kept constant at 1% (v/v) of the final incubation volume. Total and nonspecific binding were determined in the absence and presence of 10 μM PGD2. Binding reactions were routinely conducted for 3 h at 4° C. and terminated by 2 washes (100 μl each) with ice cold binding buffer. Radioactivity was determined by liquid scintillation counting in a TOPCOUNTER (Packard) following over night incubation in Microscint 20. Stable HEK293 cells were seeded at a density of 30.000 cells/well 18-24 h prior to the binding assay which was performed essentially as described for COS7 cells above. Determinations were made in duplicates.
(§3) Curve analysis was performed with the GraphPadPrism software 3.0 (Graphpad Prism Inc., San Diego, USA) and IC50 values were calculated as a measure of the antagonistic potencies.

human CRTH2-Rluc = biological target: T2, human CRTH2-Rluc (Homo sapiens, UniProt Q9Y5Y4, V204A); assay: Functional antagonist BRET assay on HEK293 cells stably expressing CRTH2-Rluc and GFP2-β-arr2; format: cell-based; conditions: antagonist incubated 15 minutes before agonist, read-out: Antag. IC50
T2 construct: expressed in transfected cells
T2 sequence (Q9Y5Y4 1-395 V204A): T1 sequence (Q9Y5Y4 1-395 V204A)
From the text: as §1, §2
BRET assay. Functional BRET assays were performed on HEK293 cells stably expressing human CRTH2-Rluc and GFP^2-β-arr2. Prior to their use in the BRET assay cells were detached and re-suspended in D-PBS with 1000 mg/L L-Glucose at a density of 2×10^6 cells/mL. DeepBlueC™ was diluted to 50 μM in D-PBS with 1000 mg/L L-Glucose (light sensitive). 100 μL of cell suspension was transferred to wells in a 96-well microplate (white OptiPlate) and placed in the Mithras LB 940 instrument (BERTHOLD TECHNOLOGIES, Bad Wildbad, Germany). 12 μL/well agonist was then injected by injector 1 and 10 μL/well DeepBlueC™ was injected simultaneously by injector 2. Five seconds after the injections the light output from the well was measured sequentially at 400 nm and 515 nm, and the BRET signal (mBRET ratio) was calculated by the ratio of the fluorescence emitted by GFP^2-β-arr2 (515 nm) over the light emitted by the receptor-Rluc (400 nm). Antagonists were added before placing the microplates into the Mithras LB 940 and allowed to incubate for 15 minutes prior to the addition of agonist and DeepBlueC™. Compounds were dissolved in DMSO and the final DMSO concentration was kept constant at 1% in the assay.
as §3

| IC50 (human CRTH2 receptor) [nM] | IC50 (human CRTH2-Rluc) [nM] | Structure (SMILES) |
| --- | --- | --- |
| < 500 | < 500 | O=C(O)Cc1sc(Cc2ccccc2-c2ccccc2)nc1-c1ccc(Cl)cc1 [Compound A34, [2-Biphenyl-2-ylmethyl-4-(4-chloro-phenyl)-thiazol-5-yl]-acetic acid] |
| < 500 | < 500 | O=C(O)Cc1sc(Cc2ccccc2-c2ccccc2)nc1-c1ccc(F)cc1 [Compound A36, [2-Biphenyl-2-ylmethyl-4-(4-fluoro-phenyl)-thiazol-5-yl]-acetic acid] |
| < 500 | < 500 | COc1cccc(-c2ccccc2Cc2nc(-c3ccc(F)cc3)c(CC(=O)O)s2)c1 [Compound A37, [4-(4-Fluoro-phenyl)-2-(3′-methoxy-biphenyl-2-ylmethyl)-thiazol-5-yl]-acetic acid] |
| < 500 | < 500 | N#Cc1ccc(-c2ccccc2Cc2nc(-c3ccc(F)cc3)c(CC(=O)O)s2)cc1 [Compound A38, [2-(4′-Cyano-biphenyl-2-ylmethyl)-4-(4-fluoro-phenyl)-thiazol-5-yl]-acetic acid] |
| < 500 | < 500 | COc1ccc(-c2ccccc2Cc2nc(-c3ccc(F)cc3)c(CC(=O)O)s2)cc1 [Compound A40, [4-(4-Fluoro-phenyl)-2-(4′-methoxy-biphenyl-2-ylmethyl)-thiazol-5-yl]-acetic acid] |
| < 500 | < 500 | O=C(O)Cc1sc(Cc2ccccc2-c2ccc3c(c2)OCO3)nc1-c1ccc(F)cc1 [Compound A42, [2-(2-Benzo[1,3]dioxol-5-yl-benzyl)-4-(4-fluoro-phenyl)-thiazol-5-yl]-acetic acid] |
| < 500 | 500 to 5000 | CC(=O)N1CCC(c2ccccc2)(c2nc(-c3ccc(Cl)cc3)c(CC(=O)O)s2)CC1 [Compound A45] |
| 500 to 5000 | > 5000 | O=C(O)Cc1sc(C2(c3ccccc3)CCNCC2)nc1-c1ccc(Cl)cc1 [Compound A46, [4-(4-Chloro-phenyl)-2-(4-phenyl-piperidin-4-yl)-thiazol-5-yl]-acetic acid] |

Continued, molecule first:

| Structure (SMILES) | IC50 (human CRTH2 receptor) [nM] | IC50 (human CRTH2-Rluc) [nM] |
| --- | --- | --- |
| COc1ccc(C(c2ccc(OC)cc2)c2nc(-c3ccc(F)cc3)c(CC(=O)O)s2)cc1 [Compound A20, [2-[Bis-(4-methoxy-phenyl)-methyl]-4-(4-fluoro-phenyl)-thiazol-5-yl]-acetic acid] | < 500 | < 500 |
| O=C(O)Cc1sc(C(c2ccccc2)c2ccccc2)nc1-c1ccc(Oc2ccccc2)cc1 [Compound A21, [2-Benzhydryl-4-(4-phenoxy-phenyl)-thiazol-5-yl]-acetic acid] | < 500 | 500 to 5000 |
| O=C(O)Cc1sc(C(c2ccccc2)c2ccc(O)cc2)nc1-c1ccc(F)cc1 (stereo not drawn) [Compound A22, {4-(4-Fluoro-phenyl)-2-[(4-hydroxy-phenyl)-phenyl-methyl]-thiazol-5-yl}-acetic acid] | < 500 | < 500 |
| O=C(O)Cc1sc(C(c2ccccc2)c2ccccc2)nc1-c1cccc(F)c1 [Compound A23, [2-Benzhydryl-4-(3-fluoro-phenyl)-thiazol-5-yl]-acetic acid] | < 500 | < 500 |
| O=C(O)Cc1sc(C(c2ccccc2)c2ccccc2)nc1-c1ccc(C(F)(F)F)cc1 [Compound A24, [2-Benzhydryl-4-(4-trifluoromethyl-phenyl)-thiazol-5-yl]-acetic acid] | 500 to 5000 | > 5000 |
| O=C(O)Cc1sc(C(c2ccc(F)cc2)c2ccc(F)cc2)nc1-c1ccc(F)c(F)c1 [Compound A25, [2-[Bis-(4-fluoro-phenyl)-methyl]-4-(3,4-difluoro-phenyl)-thiazol-5-yl]-acetic acid] | < 500 | < 500 |
| O=C(O)Cc1sc(C(c2ccccc2)c2ccccc2)nc1-c1ccc(F)c(F)c1 [Compound A26, [2-Benzhydryl-4-(3,4-difluoro-phenyl)-thiazol-5-yl]-acetic acid] | < 500 | < 500 |
| O=C(O)Cc1sc(C(c2ccc(F)cc2)c2ccc(F)cc2)nc1-c1cccc(F)c1 [Compound A27, [2-[Bis-(4-fluoro-phenyl)-methyl]-4-(3-fluoro-phenyl)-thiazol-5-yl]-acetic acid] | < 500 | < 500 |
| O=C(O)Cc1sc(C(c2ccccc2)c2ccccn2)nc1-c1ccc(Cl)cc1 (stereo not drawn) [Compound A28, [4-(4-Chloro-phenyl)-2-(phenyl-pyridin-2-yl-methyl)-thiazol-5-yl]-acetic acid] | < 500 | 500 to 5000 |
| COc1ccc(C(c2ccccn2)c2nc(-c3ccc(Cl)cc3)c(CC(=O)O)s2)cc1 (stereo not drawn) [Compound A31, {4-(4-Chloro-phenyl)-2-[(4-methoxy-phenyl)-pyridin-2-yl-methyl]-thiazol-5-yl}-acetic acid] | < 500 | < 500 |
